Marks after values point to notes of the source that are not given here.
Assays:
[1] = tested on: angiotensin II induced pressor response; assay: Inhibition of angiotensin II induced pressor response in dogs; type: in vivo, male beagles; details: fasting, AII 100 ng/kg i.v., test compound p.o. at dose equimolar to compound A 1 mg/kg, in 0.5% methylcellulose, mean±SEM
Protocol: Inhibitory Effects of the Compounds of the Present Invention Against Angiotensin II Induced Pressor Response in Dogs
For the experiment, male beagles (body weight 12.0-14.7 kg, KITAYAMA LABES, CO., LTD.) were used. They were anesthetized with sodium pentobarbital (50 mg/kg, i.p.), and a tracheal tube was inserted for management of the airway. The femoral region and the back of the neck were shaved, and a disinfectant (Isodine solution, MEIJI SEIKA KAISHA, LTD.) was applied. The dog was fixed at the dorsal position and the right femoral region was incised. A mirror catheter (5 F, MILLER INDUSTRIES) was inserted and placed in the femoral artery and a polyurethane tube in the femoral vein. The catheter and tube were passed through subcutaneously and fixed at the back region. The incised region was sutured thereafter and penicillin G potassium (MEIJI SEIKA KAISHA, LTD., 40000 units) was intramuscularly administered to prevent infection. Beginning from the next day, penicillin G potassium (40000 units) was administered once a day for 3 days. After 3 days for recovery, the dog was subjected to the experiment.
During the experiment, the dog was placed in a small metabolic cage. For measurement, the mirror catheter inserted in the femoral artery was connected to a transducer unit (MILLER INDUSTRIES), and the systemic blood pressure (average blood pressure) was recorded on a recorder (RECTI-HORIZ 8 K, NEC San-ei Instruments) through a DC amplifier (N4777, NEC San-ei Instruments) and a blood pressure monitor amplifier (N4441, NEC San-ei Instruments). The polyurethane tube inserted in the femoral vein was fixed outside the cage and used for administration of AII (PEPTIDE INSTITUTE, INC.). The experiment was conducted under fasting and AII (100 ng/kg, i.v.) was administered 3 or 4 times before administration of a test compound to confirm stabilization of the vasopressor response. A dose of the test compound corresponding to an equimolar amount of compound A was suspended in 0.5% methylcellulose and orally administered at a volume of 2 mL/kg. After drug administration, AII was administered at each time point of measurement and increase in the blood pressure was measured, based on which the inhibition rate from the value before the administration was calculated.
The results are shown in mean±SEM (Table 2). The significance between the group administered with the compound obtained in Example 5 and the group administered with compound A was analyzed using Student's t-test with Bonferroni correction ([…]).

[2] = tested on: angiotensin II induced pressor response; assay: Inhibition of angiotensin II induced pressor response in rats; type: in vivo, Male Sprague-Dawley rats; details: AII 100 ng/kg i.v., test compound p.o. at dose equimolar to compound A (0.10-0.14 mg/kg), in 0.5% methylcellulose, mean±SEM
Protocol: Inhibitory Effects of Compounds of the Present Invention Against Angiotensin II Induced Pressor Response in Rats
Male Sprague-Dawley rats (9-11 weeks old, CLEA Japan, Inc.) were anesthetized with pentobarbital (50 mg/kg, i.p.) and the femoral artery and vein were isolated and cannulated with polyethylene tubes filled with saline containing heparin (200 U/mL). The catheters were subcutaneously inserted to a site in the back of the neck and fixed. After recovery period, the rat was subjected to the experiment. The arterial catheter was connected to a pressure transducer coupled to a blood pressure monitor amplifier (2238, NEC San-ei Instruments) and the pressure was recorded on a recorder (RECTI-HORIZ 8K, NEC San-ei Instruments). After establishing angiotensin II (AII, 100 ng/kg, i.v.) induced pressor responses, a test compound at a dose corresponding to an equimolar amount of compound A (2-ethoxy-1-{[2′-(5-oxo-4,5-dihydro-1,2,4-oxadiazol-3-yl)biphenyl-4-yl]methyl}-1H-benzimidazole-7-carboxylic acid) was administered. AII was administered 24 hours later and increase in the blood pressure was measured, based on which the inhibition rate from the value before the administration was calculated. All compounds were suspended in 0.5% methylcellulose and orally administered at a volume of 2 mL/kg.
The results are shown in mean±SEM (Table 1). The significance between the group administered with the compound obtained in Example 5 and the other groups was analyzed using Student's t-test ([…]).

**Q.** What does the source list for `CCOc1nc2cccc(C(=O)O)c2n1Cc1ccc(-c2ccccc2-c2noc(=O)[nH]2)cc1` [compound A, 2-ethoxy-1-{[2′-(5-oxo-4,5-dihydro-1,2,4-oxadiazol-3-yl)biphenyl-4-yl]methyl}-1H-benzimidazole-7-carboxylic acid]?
**A.** inhibition rate of AII induced increase in blood pressure, 10 hrs after administration [1]: 27.0 ± 3.2; inhibition rate of AII induced increase in blood pressure, 24 hrs after administration [1]: 19.6 ± 3.7

**Q.** How did the “inhibition rate of AII induced increase in blood pressure, 24 hrs after administration” value [2] turn out when `CCOc1nc2cccc(C(=O)OC)c2n1Cc1ccc(-c2ccccc2-c2noc(=O)[nH]2)cc1` [compound B, methyl 2-ethoxy-1-{[2′-(5-oxo-4,5-dihydro-1,2,4-oxadiazol-3-yl)biphenyl-4-yl]methyl}-1H-benzimidazole-7-carboxylate] was run?
**A.** Its value is 0.8 ± 4.9**.

**Q.** `CCOc1nc2cccc(C(=O)OC(C)OC(=O)OC3CCCCC3)c2n1Cc1ccc(-c2ccccc2-c2noc(=O)[nH]2)cc1` (stereo not shown) [compound C, 1-(cyclohexyloxycarbonyloxy)ethyl 2-ethoxy-1-{[2′-(5-oxo-4,5-dihydro-1,2,4-oxadiazol-3-yl)biphenyl-4-yl]methyl}-1H-benzimidazole-7-carboxylate] was tested. Which “inhibition rate of AII induced increase in blood pressure, 24 hrs after administration” value [2] did it give?
**A.** Its value is 9.3 ± 8.6*.

**Q.** With `CCOc1nc2cccc(C(=O)OCc3oc(=O)oc3C)c2n1Cc1ccc(-c2ccccc2-c2noc(=O)[nH]2)cc1.[K]` [Example 5, (5-methyl-2-oxo-1,3-dioxol-4-yl)methyl 2-ethoxy-1-{[2′-(5-oxo-4,5-dihydro-1,2,4-oxadiazol-3-yl)biphenyl-4-yl]methyl}-1H-benzimidazole-7-carboxylate potassium salt] as the molecule, how does the “inhibition rate of AII induced increase in blood pressure, 24 hrs after administration” value [2] read?
**A.** Its value is 32.7 ± 4.6.

**Q.** What about the “inhibition rate of AII induced increase in blood pressure, 10 hrs after administration” value [1] of the same molecule?
**A.** The value was 55.6 ± 3.4**.

**Q.** What about the “inhibition rate of AII induced increase in blood pressure, 24 hrs after administration” value [1] of the same molecule?
**A.** Its value is 40.3 ± 5.1*.

**Q.** `CCOc1nc2cccc(C(=O)OCc3oc(=O)oc3C)c2n1Cc1ccc(-c2ccccc2-c2noc(=O)[nH]2)cc1` [Example 2, (5-methyl-2-oxo-1,3-dioxol-4-yl)methyl 2-ethoxy-1-{[2′-(5-oxo-4,5-dihydro-1,2,4-oxadiazol-3-yl)biphenyl-4-yl]methyl}-1H-benzimidazole-7-carboxylate] was tested. Which “inhibition rate of AII induced increase in blood pressure, 10 hrs after administration” value [1] did it give?
**A.** Its value is 35.9 ± 4.8.

**Q.** What about the “inhibition rate of AII induced increase in blood pressure, 24 hrs after administration” value [1] of the same molecule?
**A.** Its value is 28.6 ± 4.1.

**Q.** `CCOc1nc2cccc(C(=O)OCOC(C)=O)c2n1Cc1ccc(-c2ccccc2-c2noc(=O)[nH]2)cc1` [compound D, acetoxymethyl 2-ethoxy-1-{[2′-(5-oxo-4,5-dihydro-1,2,4-oxadiazol-3-yl)biphenyl-4-yl]methyl}-1H-benzimidazole-7-carboxylate] was tested. Which “inhibition rate of AII induced increase in blood pressure, 24 hrs after administration” value [2] did it give?
**A.** Its value is 10.9 ± 5.6*.

From patent US7572920B2, “Benzimidazole derivative and use as a II receptor antagonist” (Takeda Pharmaceutical Company Limited, priority 2004, dated 2009)
